The values below come from patent publication US9364480B2, “Pharmaceutical composition for preventing or treating cancer, containing enoblock as active ingredient” (GWANGJU INSTITUTE OF SCIENCE AND TECHNOLOGY, priority 2012, dated 2016).

The target of assay [1] is T1, Enolase purified from rabbit muscle (Oryctolagus cuniculus, UniProt P25704).
T1 construct: Enolase purified from rabbit muscle was purchased from Sigma-Aldrich; purchased Sigma-Aldrich; host or cells: rabbit muscle
Kind of assay: Enolase activity assay. The format is biochemical. The conditions noted are these: purified enolase. Here is the method:
FIG. 4. […] (a) Affinity chromatography study for ENOblock in HCT116 cancer cells. […] (b) Sequence identification for the enolase monomer subunit. […] Mascot scores above 100 were deemed to be significant. […] Twenty micrograms of cell lysate from YD-10B oral cancer cells or Huh7 hepatocytes were used as positive controls. […] As a positive control, ENOblock affinity matrix was incubated with 200 μg of HCT 116 cell lysate; 50 μg cell lysate from HCT116 cancer cells was used as a positive control for the enolase antibody.
Enolase purified from rabbit muscle was purchased from Sigma-Aldrich. A single unit of enolase is defined as the amount of enzyme that produces 1 μmol of phosphoenol pyruvate from phospho-D-glycerate/min in standard assay.^52 Enolase activity assay was measured at 37° C. by incubating pure enolase (3-9 U) in a buffer containing 50 mM imidazole-HCl (pH 6.8)(JUNSEI), 2.0 mM MgSO4 (JUNSEI) and 400 mM KCl (JUNSEI) in the absence or presence of ENOblock or NaF (Sigma). The reaction was initiated by adding 1 μmol of 2-phospho-D-glycerate, and the OD was measured after 10 min of reaction time with a spectrophometer at 240 nm.

In the next assay the test system is zebrafish larvae. The experiment in a line: Measurement of glucose uptake in zebrafish (2-NBDG). In kind it is in vivo. To be noted: 10 μg/mL. Here is the method:
FIG. 12. […] (a) Schematic of our approach to measure the effect of ENOblock treatment on […] in zebrafish.
At 72 hpf, larvae were placed into a 96-well plate (6 eggs/well in 200 μL E3 water supplemented with 0.2 mM 2-phenylthiourea; Sigma). Drug of interest was added for […]. The solution was then replaced with E3 water supplemented with 600 μM 2-NBDG and incubated for 3 h. The larva were washed with E3 water and anesthetized with 0.02% tricaine-supplemented E3 water. One larva was then placed on a chamber slide, containing 3% methylcellulose in E3 water, for fluorescent microscopy (Leica DM2500 microscope equipped with a DFC425 C digital camera). Images were captured at 50× magnification. The remaining 5 larvae where lysed with 120 μL of CelLytic M solution (Sigma-Aldrich) and sonication (4° C., 10″/5″ pulse, 10 min). Lysed larvae were centrifuged at 10000 rpm for 10 min. 100 μL of the supernatant was transferred to a 96-well plate and fluorescence was measured with a fluorescent microplate reader (SpectraMAX Gemini XS, Molecular Devices; λex=466 nm […]).

Assay [2] has as its target recombinant enolase from Schistosoma mansoni (Schistosoma mansoni, UniProt Q27877). To be noted: cited from earlier work.
The target of another assay is purified enolase (Schistosoma mansoni, UniProt Q27877). The conditions noted are these: cited from earlier work.
Sequence of purified enolase (Q27877 whole entry): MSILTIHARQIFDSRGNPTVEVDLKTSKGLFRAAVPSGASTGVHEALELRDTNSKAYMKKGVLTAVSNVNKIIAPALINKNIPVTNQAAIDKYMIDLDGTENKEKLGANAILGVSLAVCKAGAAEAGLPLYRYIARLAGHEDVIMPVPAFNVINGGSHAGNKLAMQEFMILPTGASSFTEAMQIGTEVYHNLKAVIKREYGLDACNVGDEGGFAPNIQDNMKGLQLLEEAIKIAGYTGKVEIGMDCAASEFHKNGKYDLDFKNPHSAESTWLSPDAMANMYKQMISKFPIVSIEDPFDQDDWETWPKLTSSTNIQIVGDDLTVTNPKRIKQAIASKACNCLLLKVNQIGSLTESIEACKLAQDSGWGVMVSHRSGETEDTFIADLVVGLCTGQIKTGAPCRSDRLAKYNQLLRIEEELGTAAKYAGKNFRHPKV
The test system of assay [3] is PEPCK expression in HEK cells. The experiment in a line: PEPCK expression in kidney cells. The format is cell-based. The conditions noted are these: 1 μg/mL, 24 h. An excerpt:
FIG. 10. […] Error=SD; *=P<0.05 compared to the no drug (DMSO-treated) group. […] Error=SD; *=P<0.05 for reduced PEPCK expression compared to the no drug (DMSO-treated) group.

Assay [4] has as its system pre-adipocytes undergoing adipogenesis. Kind of assay: Adipogenesis lipid accumulation (Oil Red O staining). The format is cell-based. The conditions noted are these: without adipogenesis-inducing factors.

Sequence of recombinant enolase from Schistosoma mansoni (Q27877 whole entry): as above
T1 sequence (P25704 whole entry): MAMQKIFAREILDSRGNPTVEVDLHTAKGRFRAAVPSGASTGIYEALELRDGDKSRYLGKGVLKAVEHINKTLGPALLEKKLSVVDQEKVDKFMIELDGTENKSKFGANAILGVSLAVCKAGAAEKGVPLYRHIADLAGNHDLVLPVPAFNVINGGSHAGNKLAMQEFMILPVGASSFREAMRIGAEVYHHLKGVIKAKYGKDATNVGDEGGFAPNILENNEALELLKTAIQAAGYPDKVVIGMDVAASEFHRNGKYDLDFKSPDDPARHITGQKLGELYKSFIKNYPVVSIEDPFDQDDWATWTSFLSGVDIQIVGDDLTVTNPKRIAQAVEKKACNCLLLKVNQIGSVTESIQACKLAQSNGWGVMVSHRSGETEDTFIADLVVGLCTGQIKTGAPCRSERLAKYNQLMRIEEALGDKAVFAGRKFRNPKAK

Turning to `[F-].[Na+]` [NaF, sodium fluoride, reference compound], in assay [1], the “treatment concentration giving enolase activity level approximated by 2.5 μM ENOblock” value was 1 mM. `Cc1cc(O)c2c(c1)C(=O)c1cc(O)cc(O)c1C2=O` [emodin, 6-methyl-1,3,8-trihydroxyanthraquinone, reference compound]: the “glucose uptake in larvae (2-NBDG fluorescence microscopy)” value with zebrafish larvae is on record as “enhanced glucose uptake in a similar but more intense pattern compared to the zebrafish treated with ENOblock”. Besides, the “2-NBDG fluorescence signal intensity in the eye” value with zebrafish larvae (72 hpf larvae, 4 h, vs 2-NBDG alone) is reported as “induced significantly greater fluorescent tagged glucose uptake in the zebrafish eye”.

Turning to `OC(c1cc(C(F)(F)F)nc2c(C(F)(F)F)cccc12)C1CCCCN1` (stereo not shown) [mefloquine], in assay [2], the “direct binding to recombinant enolase” value was “could not directly bind to recombinant enolase from this parasite”. Moreover, the “inhibition of purified enolase activity” value at purified enolase is on record as “could not inhibit purified enolase activity”.

For insulin: insulin, the PEPCK expression entry in assay [3] is listed as “did not reduce PEPCK expression”. The “lipid accumulation in preadipocytes (Oil Red O, microscopy)” value in assay [4] was “still induced lipid accumulation”.
